The target in assay [1] is T1, RAF kinases (Homo sapiens, UniProt P15056, V600E). The settings on record: read-out: BRAF V600E Kd; BRAF V600E.
In assay [2] the target is T2, RAF kinases (Homo sapiens, UniProt P15056). The following applies: read-out: BRAF WT Kd; BRAF WT.
Assay [3] relates to MEK1 phosphorylation in the A375 human melanoma cell line. The assay can be described thus: cells. The following applies: A-375, read-out: pMEK IC50.
Assay [4] has as its target T3, RAF kinases (Homo sapiens, UniProt P04049). The assay can be described thus: biochemical.
For a further assay, the system named is A375 cells. In words: cells. The following applies: Homo sapiens, A-375, read-out: A375 Viability EC50.
In assay [5] the target is T3, RAF kinases. The following applies: read-out: RAF1 Kd; RAF1.
Assay [6] deals with T2, RAF kinases. The assay can be described thus: biochemical.
Assay [7] addresses T1, RAF kinases. The assay can be described thus: biochemical.

From patent US8618289B2 (Ambit Biosciences Corporation, priority 2008, dated 2013) come the findings set out here.

Where two headings read alike, the source gives them in different places.

T3 sequence (P04049 whole entry): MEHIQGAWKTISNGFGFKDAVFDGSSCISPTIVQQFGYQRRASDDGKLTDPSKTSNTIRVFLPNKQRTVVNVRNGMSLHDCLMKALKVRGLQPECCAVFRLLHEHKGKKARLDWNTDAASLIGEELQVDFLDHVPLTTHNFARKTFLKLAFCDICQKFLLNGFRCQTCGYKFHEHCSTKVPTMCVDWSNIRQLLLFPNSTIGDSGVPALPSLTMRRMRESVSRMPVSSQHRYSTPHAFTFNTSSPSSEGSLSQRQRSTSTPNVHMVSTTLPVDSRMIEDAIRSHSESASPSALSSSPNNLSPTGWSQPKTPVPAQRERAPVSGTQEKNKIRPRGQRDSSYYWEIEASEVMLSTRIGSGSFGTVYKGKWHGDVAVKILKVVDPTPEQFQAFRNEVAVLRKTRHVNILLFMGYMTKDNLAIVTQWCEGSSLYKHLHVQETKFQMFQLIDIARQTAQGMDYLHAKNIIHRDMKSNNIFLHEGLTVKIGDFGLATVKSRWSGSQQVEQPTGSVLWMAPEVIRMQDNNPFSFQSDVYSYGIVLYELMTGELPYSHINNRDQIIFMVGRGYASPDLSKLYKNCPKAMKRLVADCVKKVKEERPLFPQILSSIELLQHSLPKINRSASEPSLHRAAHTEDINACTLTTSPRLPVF
T1 sequence (P15056 whole entry V600E): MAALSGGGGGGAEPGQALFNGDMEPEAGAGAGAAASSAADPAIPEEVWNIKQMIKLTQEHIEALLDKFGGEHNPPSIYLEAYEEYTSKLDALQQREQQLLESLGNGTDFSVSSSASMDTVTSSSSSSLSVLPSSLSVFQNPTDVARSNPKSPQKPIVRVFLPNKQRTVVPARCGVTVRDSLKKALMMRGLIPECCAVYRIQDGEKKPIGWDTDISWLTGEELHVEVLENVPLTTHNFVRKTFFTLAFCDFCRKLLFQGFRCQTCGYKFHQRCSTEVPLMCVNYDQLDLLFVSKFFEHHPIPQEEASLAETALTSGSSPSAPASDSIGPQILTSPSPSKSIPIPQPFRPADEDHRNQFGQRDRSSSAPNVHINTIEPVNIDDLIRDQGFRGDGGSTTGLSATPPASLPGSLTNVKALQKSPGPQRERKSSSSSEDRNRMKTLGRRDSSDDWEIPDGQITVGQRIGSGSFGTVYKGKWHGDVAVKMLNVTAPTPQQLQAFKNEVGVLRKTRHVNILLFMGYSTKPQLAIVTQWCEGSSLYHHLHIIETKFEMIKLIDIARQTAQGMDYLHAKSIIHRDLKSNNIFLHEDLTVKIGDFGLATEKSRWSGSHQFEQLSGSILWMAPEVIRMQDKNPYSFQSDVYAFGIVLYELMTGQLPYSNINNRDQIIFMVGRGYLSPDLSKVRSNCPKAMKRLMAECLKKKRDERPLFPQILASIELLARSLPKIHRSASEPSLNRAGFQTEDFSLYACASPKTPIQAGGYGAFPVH
T2 sequence (P15056 whole entry): as the sequence (P15056 whole entry V600E) above, with E600V counted along it

On to `COc1cc2ncnc(Oc3cccc(NC(=O)Nc4cc(C(C)(C)C)nn4-c4ccccc4)c3C)c2cc1OC` [Ex 289, 1-(3-tert-butyl-1-phenyl-1H-pyrazol-5-yl)-3-(3-(6,7-dimethoxyquinazolin-4-yloxy)-2-methylphenyl)urea], for which the dissociation constant (Kd) was below 250 nM on RAF kinases [1], above 1000 nM on RAF kinases [2] and 500 to 1000 nM on RAF kinases [4]. Besides, in assay [3], the concentration for half-maximal inhibition (IC50) was below 250 nM. For the same compound, the concentration for a half-maximal effect (EC50) in the assay on A375 cells lay in the range of 500 to 1000 nM.

Consider `COc1cc2ncnc(Oc3cccc(NC(=O)Nc4cc(C(C)(C)C(F)(F)F)on4)c3)c2cc1OC` [Ex 259, 1-(3-(6,7-dimethoxyquinazolin-4-yloxy)phenyl)-3-(5-(1,1,1-trifluoro-2-methylpropan-2-yl)isoxazol-3-yl)urea], for which the dissociation constant Kd on RAF kinases [1], on RAF kinases [5] and on RAF kinases [6] was below 250 nM in each case. Further, the IC50 in assay [3] was below 250 nM. In addition, the EC50 in the assay on A375 cells was below 250 nM.

As for `COc1cc2ncnc(Sc3cccc(NC(=O)Nc4cc(C5CCC5)nn4-c4ccccc4)c3)c2cc1OC` [Ex 356, 1-(3-cyclobutyl-1-phenyl-1H-pyrazol-5-yl)-3-(3-(6,7-dimethoxyquinazolin-4-ylthio)phenyl)urea], the Kd at RAF kinases [1] was below 250 nM; on RAF kinases [2], above 1000 nM; on RAF kinases [4] it was 500 to 1000 nM. In addition, in assay [3], the half-inhibitory concentration (IC50) was in the range of 250 to 500 nM. Also, in the assay on A375 cells, the concentration giving a half-maximal response (EC50) is below 250 nM.

`COc1cc2ncnc(Sc3cccc(NC(=O)Nc4cc(C(C)(C)F)no4)c3)c2cc1OCCCN1CCS(=O)(=O)CC1` [Ex 245, 1-(3-(2-fluoropropan-2-yl)isoxazol-5-yl)-3-(3-(7-methoxy-6-(4,4-dioxo-3-thiomorpholinopropoxy)quinazolin-4-ylthio)phenyl)urea]: the Kd on RAF kinases [1] is below 250 nM; on RAF kinases [2] it was below 250 nM; at RAF kinases [4] it was 250 to 500 nM. The half-maximal inhibitory concentration (IC50) in assay [3] is below 250 nM. Further, the EC50 with A375 cells was above 1000 nM.

`COc1cc2ncnc(Oc3cccc(NC(=O)Nc4cc(C(C)(C)C)nn4Cc4ccccc4)c3)c2cc1OC` [Ex 357, 1-(1-benzyl-3-tert-butyl-1H-pyrazol-5-yl)-3-(3-(6,7-dimethoxyquinazolin-4-yloxy)phenyl)urea]: the Kd is below 250 nM on RAF kinases [1], above 1000 nM at RAF kinases [5] and 500 to 1000 nM at RAF kinases [6]. Also, the half-inhibitory concentration (IC50) in assay [3] lay in the range of 250 to 500 nM. Further, the EC50 with A375 cells was above 1000 nM.

As for `COc1cc2ncnc(Oc3cc(NC(=O)Nc4cc(C(F)(F)F)nn4-c4ccccc4)ccc3F)c2cc1OC` [Ex 397, 1-(3-(6,7-Dimethoxyquinazolin-4-yloxy)-4-fluorophenyl)-3-(1-phenyl-3-(trifluoromethyl)-1H-pyrazol-5-yl)urea], the Kd at RAF kinases [1] is below 250 nM; on RAF kinases [2], above 1000 nM; on RAF kinases [4], 500 to 1000 nM. Also, the 50% inhibitory concentration (IC50) in assay [3] is below 250 nM. Further, in the assay on A375 cells, the EC50 is 250 to 500 nM.

Regarding `COCCOc1cc2ncnc(Sc3cccc(NC(=O)Nc4cc(C5CCCC5)on4)c3)c2cc1OC` [Ex 235, 1-(5-cyclopentylisoxazol-3-yl)-3-(3-(6-methoxy-7-(2-methoxyethoxy)quinazolin-4-ylthio)phenyl)urea], the Kd on RAF kinases [1] was below 250 nM; on RAF kinases [5], below 250 nM; at RAF kinases [6], 250 to 500 nM. The IC50 in assay [3] was 250 to 500 nM. Besides, the half-maximal effective concentration (EC50) in the assay with A375 cells is above 1000 nM.

As for `COc1cc2ncnc(Oc3ccc(Cl)c(NC(=O)Nc4cc(C(C)(C)C)on4)c3)c2cc1OC` [Ex 299, 1-(5-tert-butylisoxazol-3-yl)-3-(2-chloro-5-(6,7-dimethoxyquinazolin-4-yloxy)phenyl)urea], the figures for the equilibrium dissociation constant (Kd) at RAF kinases [1], on RAF kinases [5] and on RAF kinases [6] were below 250 nM, below 250 nM and 250 to 500 nM, respectively. Further, the IC50 in assay [3] is below 250 nM.

For `COCCOc1cc2ncnc(Oc3cccc(NC(=O)Nc4cc(C(C)(C)F)no4)c3)c2cc1OC` [Ex 218, 1-(3-(2-fluoropropan-2-yl)isoxazol-5-yl)-3-(3-(6-methoxy-7-(2-methoxyethoxy)quinazolin-4-yloxy)phenyl)urea], the dissociation constant Kd on RAF kinases [1] was below 250 nM; at RAF kinases [5], below 250 nM; at RAF kinases [6], 250 to 500 nM. Besides, in assay [3], the IC50 lay in the range of 250 to 500 nM. In the assay on A375 cells, the concentration giving a half-maximal response (EC50) was above 1000 nM.

As to `COCCOc1cc2ncnc(Oc3cccc(NC(=O)Nc4cc(C(C)(CF)CF)on4)c3)c2cc1OC` [Ex 213, 1-[5-(1,3-difluoro-2-methylpropan-2-yl)isoxazol-3-yl]-3-{3-[6-methoxy-7-(2-methoxyethoxy)quinazolin-4-yloxy]phenyl}urea], the figures for the Kd on RAF kinases [1], at RAF kinases [5] and on RAF kinases [6] were below 250 nM, below 250 nM and 250 to 500 nM, respectively. Moreover, the IC50 in assay [3] is below 250 nM. Further, the 50% effective concentration (EC50) in the assay on A375 cells is below 250 nM.

Take `COc1cc2ncnc(Oc3cccc(NC(=O)Nc4cc(C(C)(C)C(F)(F)F)on4)c3F)c2cc1OC` [Ex 265, 1-(3-(6,7-dimethoxyquinazolin-4-yloxy)-2-fluorophenyl)-3-(5-(1,1,1-trifluoro-2-methylpropan-2-yl)isoxazol-3-yl)urea]: the dissociation constant (Kd) on RAF kinases [1] is below 250 nM; on RAF kinases [5], below 250 nM; on RAF kinases [6], 250 to 500 nM. For the same compound, the IC50 in assay [3] is below 250 nM. In the assay on A375 cells, the concentration giving a half-maximal response (EC50) fell in the range of 250 to 500 nM.

With `COc1cc2ncnc(Oc3cccc(NC(=O)Nc4cc(C(C)(C)C)nn4-c4cccc(Cl)c4)c3)c2cc1OC` [Ex 363, 1-(3-tert-butyl-1-(3-chlorophenyl)-1H-pyrazol-5-yl)-3-(3-(6,7-dimethoxyquinazolin-4-yloxy)phenyl)urea], the dissociation constant Kd was below 250 nM on RAF kinases [1], above 1000 nM on RAF kinases [5] and 250 to 500 nM at RAF kinases [6]. For the same compound, the IC50 in assay [3] is below 250 nM.

`COc1cc2ncnc(Sc3cccc(NC(=O)Nc4cc(C(C)(C)C)nn4-c4cccc(Cl)c4)c3)c2cc1OC` [Ex 364, 1-(3-tert-butyl-1-(3-chlorophenyl)-1H-pyrazol-5-yl)-3-(3-(6,7-dimethoxyquinazolin-4-ylthio)phenyl)urea]: the results for the dissociation constant (Kd) on RAF kinases [1], on RAF kinases [5] and at RAF kinases [6] were below 250 nM, above 1000 nM and 500 to 1000 nM, respectively. Besides, the IC50 in assay [3] was below 250 nM.

Take `COc1cc2ncnc(Oc3cccc(NC(=O)Nc4cc(C(F)(F)F)no4)c3)c2cc1OC` [Ex 254, 1-(3-(6,7-dimethoxyquinazolin-4-yloxy)phenyl)-3-(3-(trifluoromethyl)isoxazol-5-yl)urea]: the equilibrium dissociation constant (Kd) on RAF kinases [1] is below 250 nM; at RAF kinases [5] it was below 250 nM; at RAF kinases [6], 250 to 500 nM. Further, the IC50 in assay [3] is above 1000 nM. Further, the concentration for a half-maximal effect (EC50) in the assay with A375 cells is above 1000 nM.

Regarding `COc1cc2c(Sc3cccc(NC(=O)Nc4ccc(OC)c(C(F)(F)F)c4)c3)ncnc2cc1OCCN1CCOCC1` [Ex 249, 1-(4-methoxy-3-(trifluoromethyl)phenyl)-3-(3-(6-methoxy-7-(2-morpholinoethoxy)quinazolin-4-ylthio)phenyl)urea], in assay [3], the IC50 lay in the range of 500 to 1000 nM. Further, the dissociation constant (Kd) at RAF kinases [7] lay within 250 to 500 nM; on RAF kinases [4], 500 to 1000 nM; on RAF kinases [6], 500 to 1000 nM. In the assay on A375 cells, the EC50 is above 1000 nM.

Consider `COc1cc(NC(=O)Nc2cccc(Sc3ncnc4cc(OC)c(OC)cc34)c2)cc(C(F)(F)F)c1` [Ex 115, 1-(3-(6,7-dimethoxyquinazolin-4-ylthio)phenyl)-3-(3-methoxy-5-(trifluoromethyl)phenyl)urea], for which the IC50 in assay [3] is above 1000 nM. Besides, the Kd on RAF kinases [7] lay in the range of 250 to 500 nM; at RAF kinases [4] it was 250 to 500 nM; at RAF kinases [6] it was 500 to 1000 nM. In addition, the EC50 with A375 cells is above 1000 nM.

With `COCCOc1cc2ncnc(Sc3cccc(NC(=O)Nc4cc(C(F)(F)F)nn4-c4ccc(F)cc4)c3)c2cc1OC` [Ex 242, 1-[1-(4-fluorophenyl)-3-(trifluoromethyl)-1H-pyrazol-5-yl]-3-{3-[6-methoxy-7-(2-methoxyethoxy)quinazolin-4-ylthio]phenyl}urea], the IC50 in assay [3] lay within 500 to 1000 nM. Moreover, the Kd on RAF kinases [7], at RAF kinases [4] and at RAF kinases [6] was above 1000 nM in each case. For the same compound, in the assay with A375 cells, the 50% effective concentration (EC50) is above 1000 nM.

As to `COc1cc2ncnc(Oc3cccc(NC(=O)Nc4cc(C(C)(C)C)nn4-c4ccc(C(C)(C)C)cc4)c3)c2cc1OC` [Ex 369, 1-(3-tert-butyl-1-(4-tert-butylphenyl)-1H-pyrazol-5-yl)-3-(3-(6,7-dimethoxyquinazolin-4-yloxy)phenyl)urea], the results for the Kd at RAF kinases [1], on RAF kinases [5] and at RAF kinases [6] were below 250 nM, above 1000 nM and 500 to 1000 nM, respectively. Besides, the IC50 in assay [3] was below 250 nM. Further, the 50% effective concentration (EC50) in the assay on A375 cells was above 1000 nM.

Take `COc1cc2ncnc(Oc3cccc(NC(=O)Nc4cc(C(C)(C)C#N)no4)c3)c2cc1OC` [Ex 125, 1-(3-(2-cyanopropan-2-yl)isoxazol-5-yl)-3-(3-(6,7-dimethoxyquinazolin-4-yloxy)phenyl)urea]: in assay [3], the concentration for half-maximal inhibition (IC50) was in the range of 250 to 500 nM. For the same compound, the Kd on RAF kinases [7] was below 250 nM; on RAF kinases [4], 250 to 500 nM; at RAF kinases [6], 250 to 500 nM. Moreover, the EC50 in the assay on A375 cells is above 1000 nM.

For `COCCOc1cc2ncnc(Oc3cccc(NC(=O)Nc4cc(C(F)(F)F)no4)c3)c2cc1OC` [Ex 229, 1-(3-(6-methoxy-7-(2-methoxyethoxy)quinazolin-4-yloxy)phenyl)-3-(3-(trifluoromethyl)isoxazol-5-yl)urea], the Kd at RAF kinases [1] was below 250 nM; at RAF kinases [5], below 250 nM; at RAF kinases [6] it was 250 to 500 nM. Besides, the IC50 in assay [3] was above 1000 nM. Besides, in the assay with A375 cells, the EC50 was above 1000 nM.

With `CCOC(C)(C)c1cc(NC(=O)Nc2cccc(Sc3ncnc4cc(OC)c(OC)cc34)c2)n(-c2ccccc2)n1` [Ex 197, 1-[3-(6,7-dimethoxyquinazolin-4-ylthio)phenyl]-3-[3-(2-ethoxypropan-2-yl)-1-phenyl-1H-pyrazol-5-yl]urea], the IC50 in assay [3] lay in the range of 250 to 500 nM. Further, the Kd on RAF kinases [7] was 250 to 500 nM; at RAF kinases [4], above 1000 nM; on RAF kinases [6] it was above 1000 nM. The EC50 in the assay on A375 cells is above 1000 nM.

As a reminder, the Kd is the equilibrium constant for the complex coming apart. As a reminder, the IC50 is the concentration that gives 50% inhibition. What is called EC50 is the concentration that produces a half-maximal response.
